Measured values reported in patent publication US8829011B2 (Janssen Pharmaceutica NV, priority 2008, dated 2014).

Assays:
[1] = biological target: T1, human recombinant 5-HT2A receptor (Homo sapiens, UniProt P28223); experiment: Affinity for 5-HT2A receptor binding sites (competitive radioligand binding, [3H]ketanserin); settings: membranes of NIH3T3 with h5-HT2A, * = tested as hydrochloride salt
T1 construct: expressed in transfected cells; host or cells: NIH3T3
Procedure: (§1) Stock drug solutions (10 mM) were prepared in DMSO (the final assay concentration of DMSO not exceeding 0.4%). Drug dilutions were prepared in assay buffer.
(§2) Sigmoidal inhibition curves were generated and fitted by nonlinear regression analysis (GraphPad Prism).
(§3) 2. Affinity for 5HT2 Receptor Binding Sites
(§4) Receptor binding was performed using the human recombinant 5-HT2A (GB: X57830), 5-HT2B (GB: Z36748) and 5-HT2C (GB: M81778) receptors. The affinity of the compounds for the 3 different human 5-HT2 receptor subtypes was evaluated by competitive radioligand binding assays using [^3H]ketanserin (h5-HT2A) or [^3H]mesulergine (h5-HT2B and h5-HT2C). The assays were performed on membranes prepared from NIH3T3 stably transfected with h5-HT2A or CHO stably transfected with h5-HT2B and h5-HT2C.

[2] = biological target: T2, human recombinant 5-HT2B receptor (Homo sapiens, UniProt P41595); experiment: Affinity for 5-HT2B receptor binding sites (competitive radioligand binding, [3H]mesulergine); settings: membranes of CHO with h5-HT2B, * = tested as hydrochloride salt
T2 construct: expressed in transfected cells; host or cells: CHO
T2 sequence (P41595 whole entry): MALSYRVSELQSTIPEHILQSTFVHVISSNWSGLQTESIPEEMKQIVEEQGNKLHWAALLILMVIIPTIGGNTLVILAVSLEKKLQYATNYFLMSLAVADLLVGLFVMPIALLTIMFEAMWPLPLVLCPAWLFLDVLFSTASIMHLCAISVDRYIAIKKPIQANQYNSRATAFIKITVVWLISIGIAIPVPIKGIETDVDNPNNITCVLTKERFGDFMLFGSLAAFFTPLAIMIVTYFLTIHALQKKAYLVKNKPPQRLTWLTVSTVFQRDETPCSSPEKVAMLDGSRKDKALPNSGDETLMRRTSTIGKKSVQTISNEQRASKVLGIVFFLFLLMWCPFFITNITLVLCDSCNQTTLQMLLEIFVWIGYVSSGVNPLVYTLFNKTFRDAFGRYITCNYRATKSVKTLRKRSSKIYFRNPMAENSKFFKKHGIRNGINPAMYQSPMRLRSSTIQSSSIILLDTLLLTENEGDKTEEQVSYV
Procedure: as §1, §2, §3, §4

[3] = biological target: T3, human recombinant 5-HT2C receptor (Homo sapiens, UniProt P28335); experiment: Affinity for 5-HT2C receptor binding sites (competitive radioligand binding, [3H]mesulergine); settings: membranes of CHO with h5-HT2C, * = tested as hydrochloride salt
T3 construct: expressed in transfected cells; host or cells: CHO
T3 sequence (P28335 33-458): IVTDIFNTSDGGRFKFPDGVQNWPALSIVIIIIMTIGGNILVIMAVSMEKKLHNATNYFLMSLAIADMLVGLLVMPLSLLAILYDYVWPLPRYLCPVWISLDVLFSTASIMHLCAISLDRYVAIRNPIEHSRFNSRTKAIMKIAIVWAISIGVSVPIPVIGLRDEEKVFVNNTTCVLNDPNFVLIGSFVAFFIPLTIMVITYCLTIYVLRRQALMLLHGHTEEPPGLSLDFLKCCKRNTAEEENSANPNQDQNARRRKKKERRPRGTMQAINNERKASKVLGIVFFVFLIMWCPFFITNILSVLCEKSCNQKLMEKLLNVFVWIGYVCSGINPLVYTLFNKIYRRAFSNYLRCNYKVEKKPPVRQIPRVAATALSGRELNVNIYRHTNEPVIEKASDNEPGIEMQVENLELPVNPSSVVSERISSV
Procedure: as §1, §2, §3, §4

[4] = biological target: T4, human recombinant 5-HT6 receptor (Homo sapiens, UniProt P50406); experiment: Affinity for 5-HT6 receptor binding sites (competitive radioligand binding, [3H]LSD); settings: membranes of HEK-293 with h5-HT6, * = tested as hydrochloride salt
T4 construct: expressed in transfected cells; host or cells: HEK-293
T4 sequence (P50406 whole entry): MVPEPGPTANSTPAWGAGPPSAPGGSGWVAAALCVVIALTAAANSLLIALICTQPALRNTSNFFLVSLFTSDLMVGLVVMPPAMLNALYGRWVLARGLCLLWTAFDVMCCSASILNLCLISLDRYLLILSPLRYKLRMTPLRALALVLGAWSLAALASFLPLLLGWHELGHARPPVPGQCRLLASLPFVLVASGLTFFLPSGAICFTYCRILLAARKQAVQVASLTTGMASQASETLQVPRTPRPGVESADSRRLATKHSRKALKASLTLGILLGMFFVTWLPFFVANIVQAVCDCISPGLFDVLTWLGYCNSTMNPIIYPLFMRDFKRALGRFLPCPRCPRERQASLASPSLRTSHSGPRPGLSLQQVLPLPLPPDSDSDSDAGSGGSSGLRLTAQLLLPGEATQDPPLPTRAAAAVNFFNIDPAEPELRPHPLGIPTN
Procedure: as §1, §2
3. Affinity for 5-HT6 Receptor Binding Sites
Receptor binding was performed using the human recombinant 5-HT6 (GB: BC0794995) receptor. The affinity of the compounds for the human 5-HT6 receptor was evaluated by competitive radioligand binding assays using [^3H]LSD. The assays were performed on membranes prepared from HEK-293 stably transfected with h5-HT6. Non-specific binding was estimated in the presence of 1 μM clozapine.

T1 sequence (P28223 whole entry): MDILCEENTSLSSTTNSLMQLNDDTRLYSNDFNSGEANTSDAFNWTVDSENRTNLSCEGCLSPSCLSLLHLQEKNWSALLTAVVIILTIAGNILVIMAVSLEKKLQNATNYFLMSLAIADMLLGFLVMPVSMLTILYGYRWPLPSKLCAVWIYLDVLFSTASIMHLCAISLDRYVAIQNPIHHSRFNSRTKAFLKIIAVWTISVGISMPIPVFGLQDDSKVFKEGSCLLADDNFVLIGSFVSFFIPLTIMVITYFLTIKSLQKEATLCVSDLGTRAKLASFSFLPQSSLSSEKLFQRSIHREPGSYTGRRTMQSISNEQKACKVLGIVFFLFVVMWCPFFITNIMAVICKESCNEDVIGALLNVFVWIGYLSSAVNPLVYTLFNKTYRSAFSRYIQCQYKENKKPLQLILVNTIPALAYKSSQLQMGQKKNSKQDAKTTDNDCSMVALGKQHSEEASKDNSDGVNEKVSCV

SMILES | Ki [2] [nM] | Ki [3] [nM] | Ki [4] [nM] | Ki [1] [nM]
CC1CCCN1c1nc2c(c(-c3ccc(Cl)cc3)n1)CNCCC2 (centres unmarked) [Example 53, 4-(4-Chloro-phenyl)-2-(2-methyl-pyrrolidin-1-yl)-6,7,8,9-tetrahydro-5H-1,3,6-triaza-benzocycloheptene] | 1200 | > 10000 | – | 2000
Clc1ccc(-c2nc(NCc3ccccc3)nc3c2CNCCC3)cc1 [Example 55, Benzyl-[4-(4-chloro-phenyl)-6,7,8,9-tetrahydro-5H-1,3,6-triaza-benzocyclohepten-2-yl]-amine] | > 10000 | 1100 | – | 50
Clc1ccc(-c2nc(N3CCOCC3)nc3c2CNCCC3)cc1 [Example 57, 4-(4-Chloro-phenyl)-2-morpholin-4-yl-6,7,8,9-tetrahydro-5H-1,3,6-triaza-benzocycloheptene] | > 10000 | > 10000 | 2290 | 500
Clc1ccc(-c2nc(N3CCOCC3)nc3c2CCNCC3)cc1 [Example 58, 4-(4-Chloro-phenyl)-2-morpholin-4-yl-6,7,8,9-tetrahydro-5H-pyrimido[4,5-d]azepine] | 30 | 20 | 102 | 17
FC1CCN(c2nc3c(c(-c4ccc(Cl)c(Cl)c4)n2)CCNCC3)CC1 [Example 67, 4-(3,4-dichlorophenyl)-2-(4-fluoro-1-piperidinyl)-6,7,8,9-tetrahydro-5H-pyrimido[4,5-d]azepine] | – | – | 96 | –
Cc1ccc(-c2nc(N3CCCCC3)nc3c2CCNCC3)cc1Cl [Example 75, 4-(3-chloro-4-methylphenyl)-6,7,8,9-tetrahydro-2-(1-piperidinyl)-5H-pyrimido[4,5-d]azepine] | – | – | 85.9 | –
C[C@@H]1CCC[C@H](C)N1c1nc2c(c(-c3ccc(OC(F)(F)F)cc3)n1)CCNCC2 [Example 90, 2-[(2R,6S)-2,6-dimethyl-1-piperidinyl]-6,7,8,9-tetrahydro-4-[4-(trifluoromethoxy)phenyl]-5H-pyrimido[4,5-d]azepine] | – | – | 88 | –
CC(C)c1ccc(-c2nc(N3CCS(=O)(=O)CC3)nc3c2CCNCC3)cc1 [Example 101, 2-(1,1-Dioxo-1λ^6-thiomorpholin-4-yl)-4-(4-isopropyl-phenyl)-6,7,8,9-tetrahydro-5H-pyrimido[4,5-d]azepine] | 650 | 3780 | 92 | –

More lines, main results first:

Ki [2] [nM] | Ki [3] [nM] | Ki [4] [nM] | SMILES | Ki [1] [nM]
280 | 960 | 41 | Cc1ccc(-c2nc(N3CCS(=O)(=O)CC3)nc3c2CCN(C)CC3)cc1 [Example 65, 2-(1,1-Dioxo-1λ^6-thiomorpholin-4-yl)-7-methyl-4-p-tolyl-6,7,8,9-tetrahydro-5H-pyrimido[4,5-d]azepine] | –
– | 1 | 14 | Cc1ccc(-c2nc(N3CCCCC3)nc3c2CCNCC3)cc1 [Example 78, 6,7,8,9-tetrahydro-4-(4-methylphenyl)-2-(1-piperidinyl)-5H-pyrimido[4,5-d]azepine] | 2
– | – | 83 | COc1ccc(-c2nc(N3CCC(F)CC3)nc3c2CCNCC3)cc1 [Example 81, 2-(4-fluoro-1-piperidinyl)-6,7,8,9-tetrahydro-4-(4-methoxyphenyl)-5H-pyrimido[4,5-d]azepine] | –
– | – | 82 | C[C@@H]1CCC[C@H](C)N1c1nc2c(c(-c3ccc4c(c3)OCCO4)n1)CCNCC2 [Example 87, 4-(2,3-dihydro-1,4-benzodioxin-6-yl)-2-[(2R,6S)-2,6-dimethyl-1-piperidinyl]-6,7,8,9-tetrahydro-5H-pyrimido[4,5-d]azepine] | –
300 | 360 | 70 | c1ccc2ncc(-c3nc(N4CCOCC4)nc4c3CCNCC4)cc2c1 [Example 102, 2-Morpholin-4-yl-4-quinolin-3-yl-6,7,8,9-tetrahydro-5H-pyrimido[4,5-d]azepine] | –
– | – | 42 | FC1(F)CCN(c2nc3c(c(-c4cnc5ccccc5c4)n2)CCNCC3)CC1 [Example 103, 2-(4,4-difluoro-1-piperidinyl)-6,7,8,9-tetrahydro-4-(3-quinolinyl)-5H-pyrimido[4,5-d]azepine] | –
